# Measurements published in patent publication US9556179B2 (BRISTOL-MYERS SQUIBB COMPANY, priority 2012, dated 2017).
# Tests used:
# CK1ε = CK1ε (Homo sapiens (Human), UniProt P49674); assay: CK1ε kinase assay (Caliper LABCHIP electrophoretic separation of fluoresceinated peptide substrate and product); assay type: biochemical; settings: 200 pM enzyme, 50 μM ATP, 22 hours at room temperature
# Outline: (§1)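 Each reaction was incubated 22 hours at room temperature and terminated with EDTA. Read-out was microfluidic electrophoretic separation of fluoresceinated substrate and phospho-product.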
# CK1δ = CK1δ (Homo sapiens (Human), UniProt P48730); assay: CK1δ kinase assay (Caliper LABCHIP electrophoretic separation of fluoresceinated peptide substrate and product); assay type: biochemical; settings: 200 pM enzyme, 50 μM ATP, 22 hours at room temperature
# Outline: as §1
# Chain of CK1ε (P49674 whole entry): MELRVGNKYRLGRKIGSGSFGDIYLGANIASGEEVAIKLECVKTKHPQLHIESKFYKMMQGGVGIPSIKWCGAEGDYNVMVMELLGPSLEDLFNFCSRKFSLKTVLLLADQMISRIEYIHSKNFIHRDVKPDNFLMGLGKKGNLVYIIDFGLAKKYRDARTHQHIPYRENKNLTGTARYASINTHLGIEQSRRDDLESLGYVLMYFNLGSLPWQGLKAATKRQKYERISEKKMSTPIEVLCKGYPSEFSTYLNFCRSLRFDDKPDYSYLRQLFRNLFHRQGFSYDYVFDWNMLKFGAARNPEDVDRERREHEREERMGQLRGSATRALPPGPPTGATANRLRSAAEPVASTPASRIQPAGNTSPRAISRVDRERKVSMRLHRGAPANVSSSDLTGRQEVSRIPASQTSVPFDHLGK
# Chain of CK1δ (P48730 whole entry): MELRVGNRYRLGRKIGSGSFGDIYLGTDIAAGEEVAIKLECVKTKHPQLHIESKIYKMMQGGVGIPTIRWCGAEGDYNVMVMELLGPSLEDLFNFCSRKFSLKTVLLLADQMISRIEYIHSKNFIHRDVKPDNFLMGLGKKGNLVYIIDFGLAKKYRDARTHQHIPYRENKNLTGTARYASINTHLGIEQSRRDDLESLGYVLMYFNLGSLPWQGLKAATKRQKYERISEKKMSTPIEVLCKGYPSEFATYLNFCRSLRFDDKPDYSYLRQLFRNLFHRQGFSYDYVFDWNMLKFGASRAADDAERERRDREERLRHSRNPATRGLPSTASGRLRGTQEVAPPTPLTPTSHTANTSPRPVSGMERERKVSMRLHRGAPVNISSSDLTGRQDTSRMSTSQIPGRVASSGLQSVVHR
SMILES,IC50 (CK1ε),IC50 (CK1δ)
"Cc1nc(-c2ccc(F)cc2)c(-c2ccc3nc(NC(=O)N4CCCC4)cn3n2)n1C [Compound 409, N-(6-(4-(4-fluorophenyl)-1,2-dimethyl-1H-imidazol-5-yl)imidazo[1,2-b]pyridazin-2-yl)pyrrolidine-1-carboxamide]",30.8 nM,58 nM
"O=C(Nc1cn2nc(-c3c(-c4ccc(F)cc4)ncn3C3CNC3)ccc2n1)c1ccnc(F)c1 [Compound 148, N-(6-(1-(azetidin-3-yl)-4-(4-fluorophenyl)-1H-imidazol-5-yl)imidazo[1,2-b]pyridazin-2-yl)-2-fluoroisonicotinamide]",9.87 nM,0.608 nM
"O=C(Nc1cn2nc(-c3c(-c4ccc(F)cc4)ncn3-c3cccnc3)ccc2n1)c1cc(F)nc(F)c1 [Compound 423, 2,6-Difluoro-N-(6-(4-(4-fluorophenyl)-1-(pyridin-3-yl)-1H-imidazol-5-yl)imidazo[1,2-b]pyridazin-2-yl)isonicotinamide]",18 nM,1.1 nM
"Cc1nc(-c2ccc(F)cc2)c(-c2ccc3nc(NC(=O)c4cn(C)cn4)cn3n2)n1C [Compound 362, N-(6-(4-(4-fluorophenyl)-1,2-dimethyl-1H-imidazol-5-yl)imidazo[1,2-b]pyridazin-2-yl)-1-methyl-1H-imidazole-4-carboxamide]",87.5 nM,6.34 nM
"CC(C)(C)Cn1cnc(-c2ccc(F)cc2)c1-c1ccc2nc(NC(=O)c3ccnc(F)c3)cn2n1 [Compound 258, N-(6-(1-(2,2-dimethylpropyl)-4-(4-fluorophenyl)-1H-imidazol-5-yl)imidazo[1,2-b]pyridazin-2-yl)-2-fluoroisonicotinamide]",6.56 nM,0.393 nM
"NC(=O)Cn1cnc(-c2ccc(F)cc2)c1-c1ccc2nc(NC(=O)c3ccnc(F)c3)cn2n1 [Compound 268, N-(6-(1-(2-amino-2-oxoethyl)-4-(4-fluorophenyl)-1H-imidazol-5-yl)imidazo[1,2-b]pyridazin-2-yl)-2-fluoroisonicotinamide]",7.57 nM,0.419 nM
Cc1nc(-c2ccc(F)cc2)c(-c2ccc3nc(NC(=O)c4cc(-c5ccc(F)cc5)ncn4)cn3n2)n1C [Compound 389],270 nM,35.2 nM

# Now those with a lower IC50 (CK1ε), led by results:
IC50 (CK1ε),IC50 (CK1δ),SMILES
3.6 nM,0.4 nM,"O=C(Nc1cn2nc(-c3c(-c4ccc(F)cc4)nc4n3CCOC4)ccc2n1)c1ccncc1 [Compound 448, N-(6-(2-(4-Fluorophenyl)-6,8-dihydro-5H-imidazo[2,1-c][1,4]oxazin-3-yl)imidazo[1,2-b]pyridazin-2-yl)isonicotinamide]"
5.24 nM,0.492 nM,"O=C(Nc1cn2nc(-c3c(-c4ccc(F)cc4)nc4ccccn34)ccc2n1)c1cc(F)nc(F)c1 [Compound 169, 2,6-difluoro-N-(6-(2-(4-fluorophenyl)imidazo[1,2-a]pyridin-3-yl)imidazo[1,2-b]pyridazin-2-yl)isonicotinamide]"
3.02 nM,2.11 nM,"O=C(Nc1cn2nc(-c3c(-c4ccc(F)cc4)nc4ccccn34)ccc2n1)c1ccccc1 [Compound 191, N-(6-(2-(4-fluorophenyl)imidazo[1,2-a]pyridin-3-yl)imidazo[1,2-b]pyridazin-2-yl)benzamide]"
2.22 nM,1.93 nM,"O=C(Nc1cn2nc(-c3c(-c4ccc(F)cc4)ncn3C3CCN(C(=O)c4ccon4)CC3)ccc2n1)c1ccnc(F)c1 [Compound 39, 2-fluoro-N-(6-(4-(4-fluorophenyl)-1-(1-(isoxazole-3-carbonyl)piperidin-4-yl)-1H-imidazol-5-yl)imidazo[1,2-b]pyridazin-2-yl)isonicotinamide]"
1.29 nM,0.101 nM,O=C(Nc1cn2nc(-c3c(-c4ccc(F)cc4)ncn3C3CCN(Cc4c[nH]cn4)CC3)ccc2n1)c1ccnc(F)c1 [Compound 22]
3.82 nM,0.207 nM,"N#Cc1ccc(C(=O)Nc2cn3nc(-c4c(-c5ccc(F)cc5)nc5ccccn45)ccc3n2)cn1 [Compound 183, 6-cyano-N-(6-(2-(4-fluorophenyl)imidazo[1,2-a]pyridin-3-yl)imidazo[1,2-b]pyridazin-2-yl)nicotinamide]"
